Our source for the TGI and GI50 values is PubChem BioAssay (NCI).

Structures are written as SMILES.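 Values below derive from 48-hour exposures of cells grown in 96-well plates, with endpoints linearly interpolated between the two concentrations bracketing the appropriate inhibition level. GI50 = concentration required for 50% inhibition of growth. TGI is the concentration that stops growth completely.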

Assay in all cases: DTP human tumour cell line panel, 48 h
The subject of experiment [1] is SN12C renal.
For experiment [2], the system named is M14 melanoma.
The subject of experiment [3] is HS 578T breast.
Experiment [4] deals with HT29 colon.
Experiment [5] concerns A549 NSCLC.
Experiment [6] has as its system DU-145 prostate.
Experiment [7] concerns K-562 leukemia.
Experiment [8] relates to SF-539 CNS.
Experiment [9] concerns UO-31 renal.
Experiment [10] concerns NCI-H226 lung.

Take `C=C(C)C1CCC2(C)C1CCC1(C)C2CCC2C3(C)C4OC(OC4=O)C(C)(C)C3CCC21C` (stereo not given): the TGI in [1], in experiment [2], in experiment [3], in [4], in experiment [5] and in experiment [6] was greater than 100 µM throughout. Further, the concentration for total growth inhibition (TGI) in experiment [7], in [8], in experiment [9] and in experiment [10] was greater than 100 µM in each case.

As for `O=C(CCCCCCCCC(=O)N1C(=O)CC(=O)N(c2ccc(Cl)cc2)C1=S)N1C(=O)CC(=O)N(c2ccc(Cl)cc2)C1=S`, the TGI in [1], in experiment [2], in [3], in experiment [4], in [5] and in experiment [6] was greater than 100 µM throughout. The concentration for total growth inhibition (TGI) in [7], in experiment [8], in [9] and in [10] was greater than 100 µM in each case.

Turning to `Oc1ccccc1/C=N/c1nc(-c2ccccc2)cs1`, the GI50 is 30.9 µM in experiment [1]; 39 µM in experiment [3]; 58.2 µM in experiment [4]; greater than 100 µM in experiment [5]; 77.5 µM in experiment [6]; 19.6 µM in experiment [7]. The GI50 in [8] is 27.5 µM; in experiment [9] it was 44.7 µM; in [10], 35.1 µM. The TGI in [1] was greater than 100 µM; in experiment [3], greater than 100 µM; in [4] it was greater than 100 µM; in [5], greater than 100 µM; in experiment [6] it was greater than 100 µM; in experiment [7], 68 µM. For the same compound, the TGI was 94.3 µM in [8], greater than 100 µM in experiment [9] and greater than 100 µM in experiment [10].

Consider `COc1cc2c(cc1OC)C(C1CC1)ON(C)CC2` (stereo not given), for which the TGI in [1], in experiment [2], in [3], in experiment [4], in experiment [5] and in experiment [6] was greater than 100 µM each time. Also, the TGI in experiment [7], in [8], in experiment [9] and in experiment [10] was greater than 100 µM in each case.

Turning to `O=c1c2ccccc2n2nnc3ccc(NCCNCCO)c1c32`, the total growth inhibition concentration (TGI) in experiment [1] was 13.1 µM; in experiment [2], 5.2 µM; in experiment [3], 6.36 µM; in [4], 6.49 µM; in experiment [5] it was 3.5 µM; in experiment [6], 2.7 µM. Besides, the TGI in experiment [7] turned out to be 21.7 µM; in [8] it was 14.6 µM; in experiment [9], 3.78 µM; in experiment [10] it was 5.06 µM.

`CC1(O)CC23CC(O)C4(O)C(CC(O)C4(C)C)C(C)(O)C2CCC1C3O` (stereo not given): the concentration for total growth inhibition (TGI) in experiment [1], in experiment [2], in experiment [3], in experiment [4], in experiment [5] and in experiment [6] was greater than 100 µM throughout. Besides, the TGI in experiment [7], in [8], in [9] and in experiment [10] was greater than 100 µM throughout.

Take `CCn1c(-c2cc3ccccc3cc2OC(C)=O)n[nH]c1=S`: the TGI was greater than 100 µM in experiment [2]; 54.6 µM in experiment [3]; greater than 100 µM in [4]; 81.1 µM in experiment [6]; 33.1 µM in experiment [7]; greater than 100 µM in experiment [8]. The TGI in experiment [9] and in experiment [10] was greater than 100 µM each time.

As to `CCOC(=O)c1c(-c2ccc(Cl)cc2)c(C#N)c(=S)n(C2OC(COC(C)=O)C(OC(C)=O)C(OC(C)=O)C2OC(C)=O)c1C` (stereo not given), the TGI in [1], in experiment [2], in experiment [3], in [4], in experiment [5] and in experiment [6] was greater than 100 µM in each case. Moreover, the TGI in experiment [7], in experiment [8] and in experiment [10] was greater than 100 µM each time. In addition, the GI50 in experiment [3] was greater than 100 µM.

Take `COc1ccc(C=C2C(C)=NN(c3cccc(Cl)c3)C23C(Cl)C(=O)N3c2nc3ccccc3s2)cc1` (stereo not given): the TGI in [2] is 44.5 µM; in experiment [3], 74.1 µM; in experiment [4], 24.4 µM; in experiment [6], 33 µM; in experiment [7], greater than 100 µM; in [8] it was greater than 100 µM. Further, the TGI in [9] turned out to be 33.4 µM; in experiment [10] it was 79.1 µM.

`CC1OC23CCCCC2C(C#N)(C#N)C1(C#N)C(=N)O3` (stereo not given): the TGI in [1] is 30.1 µM; in [2], 40.3 µM; in experiment [3], 57.8 µM; in experiment [4] it was greater than 100 µM; in [5] it was greater than 100 µM; in experiment [6] it was 66.5 µM. The TGI was greater than 100 µM in experiment [7], 45.1 µM in experiment [8] and greater than 100 µM in experiment [10].

As for `CCCCCCCCCCCCCCCC[N+](C)(C)CCl`, the total growth inhibition concentration (TGI) was 12.8 µM in experiment [1]; 6.38 µM in [2]; 5.26 µM in experiment [3]; 3.82 µM in experiment [4]; 22.3 µM in experiment [5]; 17.2 µM in experiment [6]. Moreover, the TGI in experiment [8] worked out at 8.13 µM; in experiment [9] it was 27.9 µM; in [10], 6.25 µM.

In the case of `COc1ccc(C2CC(c3cccc(Nc4ccncc4)c3)=NN2c2ccccc2)cc1` (stereo not given), the GI50 in experiment [1] was 1.72 µM; in [2] it was 1.87 µM; in [3], 1.82 µM; in experiment [4], 2.47 µM; in [6], 2.57 µM; in [7] it was 2 µM. The results for the GI50 in experiment [8], in experiment [9] and in [10] were 1.61 µM, 1.41 µM and 2.31 µM, respectively. Also, the TGI came to 3.23 µM in experiment [1]; 3.74 µM in experiment [2]; 3.87 µM in experiment [3]; 6.87 µM in [4]; 6.51 µM in [6]; 5.05 µM in [7]. The values for the TGI in [8], in experiment [9] and in experiment [10] were 3.04 µM, 2.92 µM and 8.83 µM, respectively.

By TGI is commonly meant the concentration at which net growth stops. The low end stands for more potent growth arrest, the high end for less potent growth arrest. Usually GI50 stands for the concentration at which growth is held to half of that of the control.
